# Where a SMILES comes first, the peptide text is derived from it. [ ]: non-standard residue; d: D form. The star is where a group is joined. Sta = CC(C)C[C@H](N)[C@@H](O)CC(=O)O; Isovaleryl = CC(C)CC(=O)*
# Experiments:
# [1] = system: cysteine-dependent protease of the G4 peak; experiment: Protease activity of G4 peak fractions (Enzcheck kit, BODIPYfl-caséine fluorometry) with or without known protease inhibitors, 5 mM cysteine; type: biochemical, human
# Description: The protease activities contained in the fractions obtained by transporting over the Superdex G75 HR10/30® exclusion column were assayed by fluorometry using the Enzcheck® kit (Molecular Probes).
# This kit is a rapid and simple method of measuring the protease activities, with no precipitation or separation phase and is therefore suitable for rapid screening of the protease activities of the different fractions. This protocol employs, as substrate therefor, BODIPYfl-caséine® which becomes fluorescent after enzymatic digestion. The fluorescence thus liberated is directly proportional to the protease activity contained in the sample. The fluorescence was measured on the LS50B spectrofluorometer, Perkin Elmer, with an excitation wavelength of 485 nm (slit of 2.5 nm), an emission wavelength of 535 nm (slit of 8 nm) and an integration time of 1 second per well.
# The assays were carried out in the presence or absence of cysteine at a final concentration of 5 mM so as to detect possible cysteine protease activities.
# In order to better characterize the cysteine-dependent protease isolated above, tests of inhibition by known protease inhibitors were carried out. The measurements were carried out in an identical manner to the preceding measurements in the presence of cysteine at a final concentration of 5 mM and in the presence or absence (control) of the inhibitor considered.
# cathepsins L = details: in the presence of urea; cited from earlier work
# cathepsins D = details: in the presence of urea; cited from earlier work
# L cathepsins = L cathepsins (Homo sapiens, UniProt P07711); details: cited from earlier work
# Sequence of L cathepsins (P07711 114-333): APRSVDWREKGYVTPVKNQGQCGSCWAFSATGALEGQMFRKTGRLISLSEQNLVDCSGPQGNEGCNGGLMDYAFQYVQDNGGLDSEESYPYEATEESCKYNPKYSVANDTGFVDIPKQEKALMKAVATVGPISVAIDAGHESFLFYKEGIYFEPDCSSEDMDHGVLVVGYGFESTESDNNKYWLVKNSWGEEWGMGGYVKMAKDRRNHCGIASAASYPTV
molecule,measurement,setting,value
"CC(C)C[C@H](NC(=O)[C@@H](NC(=O)N[C@@H](Cc1ccccc1)C(=O)O)[C@@H]1CCN=C(N)N1)C(=O)N[C@H](C=O)Cc1ccccc1 [chymostatin, Chymostatin]",inhibition of the cysteine-dependent protease of peak G4,"[1]; chymostatin at 2.5 μM, 5 mM cysteine",more than 50%
CC(=O)N[C@@H](CC(C)C)C(=O)N[C@@H](CC(C)C)C(=O)N[C@H](C=O)CCCNC(=N)N [Leupeptin],reduction of the protease activity of G4,"[1]; leupeptin at 1 μM, in the presence of cysteine",about 41%
"NC(N)=O [urea, Urea]",factor by which cathepsin L activity is multiplied,cathepsins L,2.5
same,factor by which cathepsin D activity is multiplied,cathepsins D,6
Z(phe-arg 2R110),sensitivity to the action of the L cathepsins relative to the B cathepsins,L cathepsins,850 times
CC(C)CC(=O)N[C@H](C(=O)N[C@H](C(=O)N[C@@H](CC(C)C)[C@@H](O)CC(=O)N[C@@H](C)C(=O)N[C@@H](CC(C)C)[C@@H](O)CC(=O)O)C(C)C)C(C)C [Pepstatin] (Isovaleryl-VV[Sta]A[Sta]-OH),action on G4 protease activity,"[1]; pepstatin at 1 μM, 5 mM cysteine",without action
"CCCNC(=O)[C@H]1O[C@@H]1C(=O)N[C@H](C(=O)N1CCC[C@H]1C(=O)O)[C@@H](C)CC [Inhibitor CA 074, CA 074]",effect on the activity profile of the cysteine-dependent protease of peak G4,"[1]; 1 μM, 5 mM cysteine","practically, did not affect the activity profile"
CC(C)C[C@H](NC(=O)[C@H]1O[C@@H]1C(=O)O)C(=O)NCCCCN=C(N)N [E 64],inhibition of the activity of the cysteine-dependent protease of the G4 peak,"[1]; E 64 at 1.4 μM, 5 mM cysteine, acetate buffer pH 5.0",about 71%
